{"source": "patent US20250261636A1", "about": "“QUATERNARY AMMONIUM SANITIZING COMPOSITION” (ECOLAB USA INC., priority 2020, published 2025)", "key": {"[1]": {"system": "Escherichia coli ATCC 11229", "experiment": "AOAC Method 960.09 Germicidal and Detergent Sanitizing Action of Disinfectants, food contact sanitizing suspension test", "format": "cell-based", "settings": "for Log Reduction: per replicate", "procedure": "(§1) The microbial efficacy of the multipurpose sanitizing composition was evaluated for food contact applications. The purpose of the testing is to determine the efficacy of compositions used for sanitizing food contact surfaces, which in the evaluations were pre-cleaned, non-porous surfaces using AOAC Method 960.09 Germicidal and Detergent Sanitizing Action of Disinfectants. […] The test organisms included Staphylococcus aureus ATCC 6538 and Escherichia coli ATCC 11229.\n(§2) The pH was adjusted by use of a polycarboxylic acid (unless otherwise noted, such as the polycarboxylate citrate tested at pH 8). In this screening test pH 9, 8, 7, 5, 4, and 3 were tested. “NT” indicates a condition was “Not Tested.”"}, "[2]": {"system": "Staphylococcus aureus ATCC 6538", "experiment": "AOAC Method 960.09 Germicidal and Detergent Sanitizing Action of Disinfectants, food contact sanitizing suspension test", "format": "cell-based", "settings": "30 ppm, pH 5, 120° F.", "procedure": "as §1, §2"}}, "note": "Values joined by “and” are separate entries in the source; they are usually repeats but may differ in a detail not shown here. Equal values may be shown once.", "data": [{"smiles": "CCCCCCCCCC[N+](C)(C)CCCCCCCCCC.[Cl-]", "note": "[Bardac 2250, didecyl dimethyl ammonium chloride]", "values": [{"measurement": "Average Log Reduction", "setting": "[1]; 30 ppm, pH 5, 120° F.", "result": 6.83, "unit": "log"}, {"measurement": "Average Log Reduction", "setting": "[1]; 30 ppm, pH 7, 120° F.", "result": 3.33, "unit": "log"}, {"measurement": "CFU - Dilution 1E−01", "setting": "[1]; 30 ppm, pH 7, 120° F.", "result": "TNTC"}, {"measurement": "CFU - Dilution 1E−02", "setting": "[1]; 30 ppm, pH 7, 120° F.", "result": "TNTC"}, {"measurement": "CFU/mL", "setting": "[1]; 30 ppm, pH 7, 120° F.", "result": "3.00E+04", "unit": "CFU/mL"}, {"measurement": "Log Reduction", "setting": "[1]; 30 ppm, pH 7, 120° F.", "result": 3.33, "unit": "log"}, {"measurement": "Average Log Reduction", "setting": "[1]; 30 ppm, pH 9, 120° F.", "result": 3.33, "unit": "log"}, {"measurement": "CFU - Dilution 1E−01", "setting": "[1]; 30 ppm, pH 9, 120° F.", "result": "TNTC"}, {"measurement": "CFU - Dilution 1E−02", "setting": "[1]; 30 ppm, pH 9, 120° F.", "result": "TNTC"}, {"measurement": "CFU/mL", "setting": "[1]; 30 ppm, pH 9, 120° F.", "result": "3.00E+04", "unit": "CFU/mL"}, {"measurement": "Log", "setting": "[1]; 30 ppm, pH 9, 120° F.", "result": 4.48}, {"measurement": "Log Reduction", "setting": "[1]; 30 ppm, pH 9, 120° F.", "result": 3.33, "unit": "log"}, {"measurement": "Average Log Reduction", "setting": "[1]; 40 ppm, pH 7, 120° F.", "result": 5.02, "unit": "log"}, {"measurement": "Average Log Reduction", "setting": "[1]; 40 ppm, pH 9, 120° F.", "result": 4.63, "unit": "log"}, {"measurement": "CFU - Dilution 1E−01", "setting": "[1]; 40 ppm, pH 9, 120° F.", "result": "192 CFU and 120 CFU"}, {"measurement": "CFU - Dilution 1E−02", "setting": "[1]; 40 ppm, pH 9, 120° F.", "result": "12 CFU and 14 CFU"}, {"measurement": "CFU/mL", "setting": "[1]; 40 ppm, pH 9, 120° F.", "result": "1.85E+03 CFU/mL and 1.22E+03 CFU/mL"}, {"measurement": "Log", "setting": "[1]; 40 ppm, pH 9, 120° F.", "result": "3.27 and 3.09"}, {"measurement": "Log Reduction", "setting": "[1]; 40 ppm, pH 9, 120° F.", "result": "4.54 log and 4.72 log"}, {"measurement": "log reduction E. coli (ATCC 11229)", "setting": "[1]; 50 ppm, pH 7, 120° F.", "result": 6.71, "unit": "log"}, {"measurement": "log reduction S. aureus (ATCC 6538)", "setting": "[2]", "result": 6.88, "unit": "log"}]}, {"smiles": "CCCCCCCC[N+](C)(C)CCCCCCCC.[Cl-]", "note": "[Bardac LF, dioctyl dimethyl ammonium chloride]", "values": [{"measurement": "Average Log Reduction", "setting": "[1]; 30 ppm, pH 5, 120° F.", "result": 3.06, "unit": "log"}, {"measurement": "CFU - Dilution 1E−01", "setting": "[1]; 30 ppm, pH 5, 120° F.", "result": "TNTC"}, {"measurement": "CFU - Dilution 1E−02", "setting": "[1]; 30 ppm, pH 5, 120° F.", "result": "TNTC"}, {"measurement": "CFU/mL", "setting": "[1]; 30 ppm, pH 5, 120° F.", "result": "3.0E+04", "unit": "CFU/mL"}, {"measurement": "Log", "setting": "[1]; 30 ppm, pH 5, 120° F.", "result": 4.48}, {"measurement": "Log Reduction", "setting": "[1]; 30 ppm, pH 5, 120° F.", "result": 3.06, "unit": "log"}, {"measurement": "Average Log Reduction", "setting": "[1]; 30 ppm, pH 7, 120° F.", "result": 3.06, "unit": "log"}, {"measurement": "log reduction E. coli (ATCC 11229)", "setting": "[1]; 60 ppm, pH 5, 120° F.", "result": 3.06, "unit": "log"}, {"measurement": "log reduction E. coli (ATCC 11229)", "setting": "[1]; 60 ppm, pH 7, 120° F.", "result": 3.06, "unit": "log"}, {"measurement": "log reduction E. coli (ATCC 11229)", "setting": "[1]; 90 ppm, pH 5, 120° F.", "result": 3.06, "unit": "log"}, {"measurement": "log reduction E. coli (ATCC 11229)", "setting": "[1]; 90 ppm, pH 7, 120° F.", "result": 3.06, "unit": "log"}]}]}
